Results reported in the NIST ThermoML archive (doi:10.1016/j.fluid.2007.07.020).
Several values for one entry are separate records, joined by “and”; a condition that tells them apart may be missing. Identical values can stand only once. Numbers after ± are expanded uncertainties.

How the values were obtained:
[1] = Crystal; DTA
[2] = Molar enthalpy of transition or fusion; settings: Crystal; DSC

- Normal melting temperature [1]: 287 ± 3 °C
- Molar enthalpy of transition or fusion [2]: 31.8 kJ/mol and 39.8 kJ/mol
Structure (SMILES): O=C([O-])Cc1ccccc1Nc1c(Cl)cccc1Cl.[Na+] [sodium diclofenac]
